In PubChem BioAssay AID248 (DTP/NCI, 2004):
“And” between values parts separate entries of the source, which are not always exact repeats. Equal entries are not always repeated. Toxic doses and inconclusive results are not listed. No stated cut-off is given here; in the data, active means T/C of 150% or more; inactive means T/C below 125%.

Tested on: L1210 leukemia ip in BDF1 mice, survival T/C
Test: NCI In Vivo Anticancer Drug Screen. Data for tumor model L1210 Leukemia (intraperitoneal) in B6D2F1 (BDF1) mice
Details: higher = longer survival
Method in brief: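 Tumor cells were implanted, animals were treated, and survival was followed. The result divides the treated measurement by the vehicle-control measurement.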

[1] = endpoint: mean survival time, dose: 100.0 mg/kg/injection, schedule: Q04DX002 (ip), vehicle: Klucel (hydroxypropylcellulose) (HPC)
[2] = endpoint: mean survival time, dose: 100.0 mg/kg/injection, schedule: Q01DX001 (ip), vehicle: saline
[3] = endpoint: mean survival time, dose: 200.0 mg/kg/injection, schedule: Q01DX001 (ip), vehicle: saline
[4] = endpoint: mean survival time, dose: 400.0 mg/kg/injection, schedule: Q01DX001 (ip), vehicle: saline
[5] = endpoint: mean survival time, dose: 100.0 mg/kg/injection, schedule: Q04DX003 (ip), vehicle: saline with Tween-80
[6] = endpoint: mean survival time, dose: 200.0 mg/kg/injection, schedule: Q04DX003 (ip), vehicle: saline with Tween-80
[7] = endpoint: mean survival time, dose: 400.0 mg/kg/injection, schedule: Q04DX003 (ip), vehicle: saline with Tween-80
[8] = endpoint: mean survival time, dose: 100.0 mg/kg/injection, schedule: Q01DX009 (ip), vehicle: Klucel (hydroxypropylcellulose) (HPC)
[9] = endpoint: mean survival time, dose: 200.0 mg/kg/injection, schedule: Q01DX009 (ip), vehicle: Klucel (hydroxypropylcellulose) (HPC)
[10] = endpoint: mean survival time, dose: 100.0 mg/kg/injection, schedule: Q01DX009 (ip), vehicle: saline
[11] = endpoint: mean survival time, dose: 100.0 mg/kg/injection, schedule: Q04DX003 (ip), vehicle: saline
[12] = endpoint: mean survival time, dose: 200.0 mg/kg/injection, schedule: Q01DX009 (ip), vehicle: saline
[13] = endpoint: mean survival time, dose: 200.0 mg/kg/injection, schedule: Q04DX003 (ip), vehicle: saline
[14] = endpoint: mean survival time, dose: 100.0 mg/kg/injection, schedule: Q01DX009 (ip), vehicle: saline with Tween-80
[15] = endpoint: mean survival time, dose: 200.0 mg/kg/injection, schedule: Q01DX009 (ip), vehicle: saline with Tween-80
[16] = endpoint: mean survival time, dose: 400.0 mg/kg/injection, schedule: Q01DX009 (ip), vehicle: saline with Tween-80
[17] = endpoint: mean survival time, dose: 100.0 mg/kg/injection, schedule: Q04DX002 (ip), vehicle: saline with Tween-80

Measured: T/C

CCC1=C(C[C@H]2NCCc3cc(OC)c(OC)cc32)C[C@H]2c3cc(OC)c(OC)cc3CCN2C1
inactive: endpoint: mean survival time, dose: 1.0 mg/kg/injection, schedule: Q01DX005 (ip), vehicle: saline 111 % of control | endpoint: mean survival time, dose: 1.0 mg/kg/injection, schedule: Q03HX024 (ip), vehicle: saline 111 % of control | endpoint: mean survival time, dose: 2.0 mg/kg/injection, schedule: Q01DX005 (ip), vehicle: saline 107 % of control and 108 % of control | endpoint: mean survival time, dose: 2.0 mg/kg/injection, schedule: Q01DX009 (ip), vehicle: saline 103 % of control | endpoint: mean survival time, dose: 2.0 mg/kg/injection, schedule: Q03HX016 (ip), vehicle: saline 111 % of control | endpoint: mean survival time, dose: 2.0 mg/kg/injection, schedule: Q04DX003 (ip), vehicle: saline 103 % of control and 104 % of control | endpoint: mean survival time, dose: 2.32 mg/kg/injection, schedule: Q01DX005 (ip), vehicle: saline 117 % of control | endpoint: mean survival time, dose: 4.0 mg/kg/injection, schedule: Q01DX005 (ip), vehicle: saline 119 % of control [middle of 4 runs] | endpoint: mean survival time, dose: 4.0 mg/kg/injection, schedule: Q01DX005 (sc), vehicle: saline 122 % of control | endpoint: mean survival time, dose: 4.0 mg/kg/injection, schedule: Q01DX009 (ip), vehicle: saline 103 % of control and 119 % of control | endpoint: mean survival time, dose: 4.0 mg/kg/injection, schedule: Q04DX003 (ip), vehicle: saline 107 % of control and 105 % of control and 108 % of control | endpoint: mean survival time, dose: 4.64 mg/kg/injection, schedule: Q01DX005 (ip), vehicle: saline 116 % of control | endpoint: mean survival time, dose: 4.64 mg/kg/injection, schedule: Q04DX003 (ip), vehicle: saline 106 % of control | endpoint: mean survival time, dose: 8.0 mg/kg/injection, schedule: Q01DX005 (oral), vehicle: saline 102 % of control | endpoint: mean survival time, dose: 8.0 mg/kg/injection, schedule: Q01DX005 (sc), vehicle: saline 119 % of control | endpoint: mean survival time, dose: 8.0 mg/kg/injection, schedule: Q01DX009 (ip), vehicle: saline 108 % of control | endpoint: mean survival time, dose: 8.0 mg/kg/injection, schedule: Q04DX003 (ip), vehicle: saline 111 % of control [middle of 4 runs] | endpoint: mean survival time, dose: 9.28 mg/kg/injection, schedule: Q04DX003 (ip), vehicle: saline 94 % of control | endpoint: mean survival time, dose: 16.0 mg/kg/injection, schedule: Q01DX005 (oral), vehicle: saline 116 % of control | endpoint: mean survival time, dose: 16.0 mg/kg/injection, schedule: Q01DX005 (sc), vehicle: saline 105 % of control | endpoint: mean survival time, dose: 16.0 mg/kg/injection, schedule: Q08DX002 (ip), vehicle: saline 120 % of control | endpoint: mean survival time, dose: 32.0 mg/kg/injection, schedule: Q01DX001 (sc), vehicle: saline 110 % of control | endpoint: mean survival time, dose: 37.12 mg/kg/injection, schedule: Q04DX003 (ip), vehicle: saline 108 % of control | endpoint: mean survival time, dose: 64.0 mg/kg/injection, schedule: Q01DX001 (sc), vehicle: saline 121 % of control | endpoint: mean survival time, dose: 64.0 mg/kg/injection, schedule: Q04DX003 (ip), vehicle: saline 102 % of control | endpoint: median survival time, dose: 4.0 mg/kg/injection, schedule: Q04DX003 (ip), vehicle: saline 102 % of control | endpoint: median survival time, dose: 8.0 mg/kg/injection, schedule: Q04DX003 (ip), vehicle: saline 107 % of control | endpoint: median survival time, dose: 16.0 mg/kg/injection, schedule: Q04DX003 (ip), vehicle: saline 110 % of control

CNC(=O)Nc1ccccc1[N+](=O)[O-]
inactive: [1] 108 % of control | endpoint: mean survival time, dose: 200.0 mg/kg/injection, schedule: Q04DX002 (ip), vehicle: Klucel (hydroxypropylcellulose) (HPC) 97 % of control

O=c1[nH]c(-c2ccccc2)ncc1OCc1ccccc1
inactive: endpoint: mean survival time, dose: 50.0 mg/kg/injection, schedule: Q01DX001 (ip), vehicle: carboxymethylcellulose (CMC) 91 % of control | endpoint: mean survival time, dose: 100.0 mg/kg/injection, schedule: Q01DX001 (ip), vehicle: carboxymethylcellulose (CMC) 100 % of control | endpoint: mean survival time, dose: 200.0 mg/kg/injection, schedule: Q01DX001 (ip), vehicle: carboxymethylcellulose (CMC) 96 % of control | endpoint: mean survival time, dose: 400.0 mg/kg/injection, schedule: Q01DX001 (ip), vehicle: carboxymethylcellulose (CMC) 89 % of control

CC(C)C(=O)C(C)(C)C
inactive: [2] 102 % of control | [3] 98 % of control | [4] 107 % of control

CN(C)N=Nc1c[nH]c(=O)[nH]c1=O
inactive: endpoint: mean survival time, dose: 10.0 mg/kg/injection, schedule: Q01DX001 (ip), vehicle: saline 108 % of control | endpoint: mean survival time, dose: 20.0 mg/kg/injection, schedule: Q01DX001 (ip), vehicle: saline 120 % of control | endpoint: mean survival time, dose: 40.0 mg/kg/injection, schedule: Q01DX001 (ip), vehicle: saline 123 % of control

CCOC(=O)C(=[N+]=[N-])S(=O)(=O)c1ccccc1
inactive: [5] 97 % of control | [6] 101 % of control | [7] 114 % of control

C=CCNC(=S)NCc1ccc(Cl)cc1
inactive: endpoint: mean survival time, dose: 25.0 mg/kg/injection, schedule: Q01DX009 (ip), vehicle: Klucel (hydroxypropylcellulose) (HPC) 100 % of control | endpoint: mean survival time, dose: 50.0 mg/kg/injection, schedule: Q01DX009 (ip), vehicle: Klucel (hydroxypropylcellulose) (HPC) 102 % of control | [8] 94 % of control | [1] 111 % of control

CCOc1ccccc1NC(=O)c1c(Br)c(Br)c(Br)c(Br)c1C(=O)O
inactive: [8] 102 % of control | [9] 102 % of control

Cc1nc2cnn(C)c2nc1C
inactive: endpoint: mean survival time, dose: 50.0 mg/kg/injection, schedule: Q01DX009 (ip), vehicle: saline 101 % of control | [10] 97 % of control | [11] 106 % of control | [12] 88 % of control | [13] 100 % of control

CNC(=O)C(C)NC(C)=O (configuration not stated)
inactive: endpoint: mean survival time, dose: 50.0 mg/kg/injection, schedule: Q04DX002 (ip), vehicle: saline 99 % of control | endpoint: mean survival time, dose: 100.0 mg/kg/injection, schedule: Q04DX002 (ip), vehicle: saline 102 % of control | endpoint: mean survival time, dose: 200.0 mg/kg/injection, schedule: Q04DX002 (ip), vehicle: saline 105 % of control

COc1cc(N=Nc2ccccc2C(=O)O)ccc1O
inactive: [14] 96 % of control | [5] 96 % of control | [15] 104 % of control | [6] 101 % of control | [7] 101 % of control

C=C(C)C1(CCC(C)C)C(=O)NC(=O)NC1=O
inactive: endpoint: mean survival time, dose: 75.0 mg/kg/injection, schedule: Q01DX001 (ip), vehicle: saline 109 % of control | endpoint: mean survival time, dose: 150.0 mg/kg/injection, schedule: Q01DX001 (ip), vehicle: saline 104 % of control | endpoint: mean survival time, dose: 300.0 mg/kg/injection, schedule: Q01DX001 (ip), vehicle: saline 105 % of control

CCCCNC=O
inactive: [10] 101 % of control | [11] 102 % of control | [12] 106 % of control | [13] 93 % of control | endpoint: mean survival time, dose: 400.0 mg/kg/injection, schedule: Q01DX009 (ip), vehicle: saline 108 % of control | endpoint: mean survival time, dose: 400.0 mg/kg/injection, schedule: Q04DX003 (ip), vehicle: saline 111 % of control

OCCOc1nc(OCCO)c(Cl)c(C(Cl)(Cl)Cl)n1
inactive: [14] 98 % of control | [15] 93 % of control | [16] 86 % of control

CCC(C)COS(=O)(=O)c1ccc(C)cc1 (configuration not stated)
inactive: [17] 103 % of control | endpoint: mean survival time, dose: 200.0 mg/kg/injection, schedule: Q04DX002 (ip), vehicle: saline with Tween-80 103 % of control | endpoint: mean survival time, dose: 400.0 mg/kg/injection, schedule: Q04DX002 (ip), vehicle: saline with Tween-80 100 % of control

Nc1ccc(NS(=O)(=O)c2ccccc2)nc1
inactive: [8] 102 % of control | endpoint: mean survival time, dose: 100.0 mg/kg/injection, schedule: Q04DX003 (ip), vehicle: Klucel (hydroxypropylcellulose) (HPC) 106 % of control | [9] 96 % of control | endpoint: mean survival time, dose: 200.0 mg/kg/injection, schedule: Q04DX003 (ip), vehicle: Klucel (hydroxypropylcellulose) (HPC) 100 % of control | endpoint: mean survival time, dose: 400.0 mg/kg/injection, schedule: Q01DX009 (ip), vehicle: Klucel (hydroxypropylcellulose) (HPC) 93 % of control | endpoint: mean survival time, dose: 400.0 mg/kg/injection, schedule: Q04DX003 (ip), vehicle: Klucel (hydroxypropylcellulose) (HPC) 105 % of control

CC(=O)N(C(C)=O)c1ccccc1
inactive: [14] 105 % of control | [15] 107 % of control | [16] 115 % of control

CC(=O)Nc1ccc(Cc2ccc(NC(C)=O)cc2N)c(N)c1
inactive: endpoint: mean survival time, dose: 50.0 mg/kg/injection, schedule: Q01DX001 (ip), vehicle: saline 96 % of control | [2] 98 % of control | [3] 104 % of control | [4] 92 % of control

Cc1csc2nccc(Cl)c12
inactive: endpoint: mean survival time, dose: 50.0 mg/kg/injection, schedule: Q04DX002 (ip), vehicle: saline with Tween-80 98 % of control | [17] 91 % of control
